Three molecules from patent US20070249637A1, “Inhibitors Of Hepatitis C Virus Protease, And Compositions And Treatments Using The Same” (priority 2004, published 2007) can be followed below.

SMILES strings stand for the structures. Where two headings read alike, the source gives them in different places.

For the series the following is noted: rcm bond, 15-membered ring, DCM, 40.0 °C.

On to `COC(=O)[C@@]12C[C@H]1/C=C\CCCCCC(NC(=O)OC(C)(C)C)C(=O)N1C[C@H](Oc3cc(-c4ccccn4)nc4ccsc34)C[C@H]1C(=O)N2` (stereo partly drawn), for which the ring closure, isolated yield (from C=CCCCCCC(NC(=O)OC(C)(C)C)C(=O)N1C[C@H](Oc2cc(-c3ccccn3)nc3ccsc23)C[C@H]1C(=O)N[C@]1(C(=O)OC)C[C@H]1C=C, Grubbs II (0.25 equiv), 2.0 mM, 4.0 h) stood at 24%.

For the molecule `COC(=O)[C@@]12C[C@H]1/C=C\CCCCC[C@H](NC(=O)OC(C)(C)C)C(=O)N1C[C@H](Oc3nc(-c4ccccn4)nc4ccsc34)C[C@H]1C(=O)N2`, the ring closure, isolated yield (from C=CCCCCC[C@H](NC(=O)OC(C)(C)C)C(=O)N1C[C@H](Oc2nc(-c3ccccn3)nc3ccsc23)C[C@H]1C(=O)N[C@]1(C(=O)OC)C[C@H]1C=C, Grubbs II (0.15 equiv), 5.0 mM, 2.0 h) was determined as 25%.

Regarding `COC(=O)[C@@]12C[C@H]1/C=C\CCCCC[C@H](NC(=O)OC(C)(C)C)C(=O)N1C[C@H](Oc3nc(-c4ccccn4)nc4sccc34)C[C@H]1C(=O)N2`, the ring closure, isolated yield (from C=CCCCCC[C@H](NC(=O)OC(C)(C)C)C(=O)N1C[C@H](Oc2nc(-c3ccccn3)nc3sccc23)C[C@H]1C(=O)N[C@]1(C(=O)OC)C[C@H]1C=C, Grubbs II (0.15 equiv), 5.0 mM, 2.0 h) is 38%.
